Results published in ChEMBL document CHEMBL1201862, “PubChem BioAssay data set” (2004).
Structures can show the parent of a compound that is named as a salt. Blank lines part the entries; values can stand above or below the compound they belong to. The source made the active and inactive calls.

Assays:
[1] = biological target: Lysosomal acid glucosylceramidase (Homo sapiens, UniProt P04062); assay: Dose response cell-based high throughput screening assay to identify enhancers of beta-glucosidase activity. [Related pubchem assays: 784 ]; format: functional
Lysosomal acid glucosylceramidase, sequence (P04062 whole entry): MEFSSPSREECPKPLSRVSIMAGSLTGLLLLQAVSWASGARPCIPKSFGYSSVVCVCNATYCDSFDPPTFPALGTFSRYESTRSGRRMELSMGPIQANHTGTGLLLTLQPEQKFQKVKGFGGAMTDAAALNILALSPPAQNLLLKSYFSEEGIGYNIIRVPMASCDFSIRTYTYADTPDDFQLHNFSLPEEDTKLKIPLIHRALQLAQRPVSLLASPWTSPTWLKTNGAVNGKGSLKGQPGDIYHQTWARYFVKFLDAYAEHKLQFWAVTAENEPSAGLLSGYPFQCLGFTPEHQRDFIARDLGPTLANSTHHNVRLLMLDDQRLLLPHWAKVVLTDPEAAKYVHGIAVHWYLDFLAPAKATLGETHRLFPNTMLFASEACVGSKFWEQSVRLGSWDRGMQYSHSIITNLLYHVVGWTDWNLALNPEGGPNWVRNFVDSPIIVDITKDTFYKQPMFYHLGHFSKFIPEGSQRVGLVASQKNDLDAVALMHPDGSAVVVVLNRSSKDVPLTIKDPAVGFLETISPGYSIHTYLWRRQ

Procathepsin L = Procathepsin L (Homo sapiens, UniProt P07711)
Procathepsin L, sequence (P07711 whole entry): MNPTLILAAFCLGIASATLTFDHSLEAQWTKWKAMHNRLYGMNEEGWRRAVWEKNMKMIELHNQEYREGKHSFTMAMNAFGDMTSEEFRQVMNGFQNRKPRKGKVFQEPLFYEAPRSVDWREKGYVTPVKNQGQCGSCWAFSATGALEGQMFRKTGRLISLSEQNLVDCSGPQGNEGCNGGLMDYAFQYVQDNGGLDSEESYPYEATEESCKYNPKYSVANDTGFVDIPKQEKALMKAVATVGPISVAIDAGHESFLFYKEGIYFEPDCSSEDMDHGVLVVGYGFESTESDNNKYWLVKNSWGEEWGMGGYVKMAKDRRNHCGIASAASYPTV

Aspartyl aminopeptidase = biological target: T1, Aspartyl aminopeptidase (Plasmodium falciparum 3D7, UniProt Q8I2J3)
T1 sequence (Q8I2J3 whole entry): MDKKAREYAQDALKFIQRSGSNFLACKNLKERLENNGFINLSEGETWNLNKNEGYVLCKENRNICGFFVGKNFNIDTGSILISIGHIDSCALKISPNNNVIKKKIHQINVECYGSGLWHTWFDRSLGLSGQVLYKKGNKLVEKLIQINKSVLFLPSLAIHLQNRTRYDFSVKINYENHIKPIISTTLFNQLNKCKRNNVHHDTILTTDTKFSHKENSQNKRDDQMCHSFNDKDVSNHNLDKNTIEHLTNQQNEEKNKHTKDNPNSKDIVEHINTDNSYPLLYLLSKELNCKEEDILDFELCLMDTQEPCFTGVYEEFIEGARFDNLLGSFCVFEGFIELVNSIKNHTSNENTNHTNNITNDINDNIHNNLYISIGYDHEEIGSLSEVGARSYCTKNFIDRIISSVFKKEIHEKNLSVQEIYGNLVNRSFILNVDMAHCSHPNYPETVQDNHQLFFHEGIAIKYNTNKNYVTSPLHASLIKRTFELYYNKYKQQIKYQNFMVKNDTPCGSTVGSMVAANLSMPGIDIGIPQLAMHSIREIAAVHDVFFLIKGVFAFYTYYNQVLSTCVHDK

HT-1080 = assay: cytotoxicity in HT1080 fibrosarcoma cells, cell-based, fluorescence readout (AID 620); format: functional; conditions: Homo sapiens
[2] = biological target: Glyceraldehyde-3-phosphate dehydrogenase (Homo sapiens, UniProt P04406)
Glyceraldehyde-3-phosphate dehydrogenase, sequence (P04406 whole entry): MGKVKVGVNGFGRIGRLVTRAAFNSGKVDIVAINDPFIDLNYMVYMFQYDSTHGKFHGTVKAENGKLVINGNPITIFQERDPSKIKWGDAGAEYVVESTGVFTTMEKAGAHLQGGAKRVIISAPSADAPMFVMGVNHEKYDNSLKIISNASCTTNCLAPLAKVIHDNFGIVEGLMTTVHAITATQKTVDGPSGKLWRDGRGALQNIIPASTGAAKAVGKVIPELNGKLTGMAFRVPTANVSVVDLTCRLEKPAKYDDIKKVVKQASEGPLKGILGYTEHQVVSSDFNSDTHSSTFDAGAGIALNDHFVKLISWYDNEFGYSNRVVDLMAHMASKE

[3] = biological target: Luciferin 4-monooxygenase (Photinus pyralis, UniProt P08659); assay: Counter Screen for Luciferase-based Assay Positives. [Related pubchem assays: 620, 618, 411 ]
Luciferin 4-monooxygenase, sequence (P08659 whole entry): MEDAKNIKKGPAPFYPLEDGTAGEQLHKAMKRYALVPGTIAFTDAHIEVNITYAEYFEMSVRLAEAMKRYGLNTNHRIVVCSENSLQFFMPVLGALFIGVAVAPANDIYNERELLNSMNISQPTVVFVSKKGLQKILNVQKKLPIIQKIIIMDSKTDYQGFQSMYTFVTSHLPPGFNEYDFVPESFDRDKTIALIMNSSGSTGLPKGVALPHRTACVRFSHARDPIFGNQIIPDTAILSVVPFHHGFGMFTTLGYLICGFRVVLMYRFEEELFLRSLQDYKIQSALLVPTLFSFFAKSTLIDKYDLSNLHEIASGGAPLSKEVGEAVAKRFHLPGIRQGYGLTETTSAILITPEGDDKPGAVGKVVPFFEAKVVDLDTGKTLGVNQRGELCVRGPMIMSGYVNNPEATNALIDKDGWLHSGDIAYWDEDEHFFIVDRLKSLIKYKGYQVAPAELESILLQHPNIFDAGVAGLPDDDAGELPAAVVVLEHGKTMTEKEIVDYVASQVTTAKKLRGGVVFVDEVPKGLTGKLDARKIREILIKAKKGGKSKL

[4] = biological target: T2, Short transient receptor potential channel 4 (Mus musculus, UniProt Q9QUQ5); assay: mouse TRPC4 channel inhibitors, dose response, cell-based, HEK293 TRPC4/mu-opioid, Fluo-4 calcium (AID 434942); format: functional;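 further: potency of inhibitors blocking the TRPC4 calcium response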
T2 sequence (Q9QUQ5 whole entry): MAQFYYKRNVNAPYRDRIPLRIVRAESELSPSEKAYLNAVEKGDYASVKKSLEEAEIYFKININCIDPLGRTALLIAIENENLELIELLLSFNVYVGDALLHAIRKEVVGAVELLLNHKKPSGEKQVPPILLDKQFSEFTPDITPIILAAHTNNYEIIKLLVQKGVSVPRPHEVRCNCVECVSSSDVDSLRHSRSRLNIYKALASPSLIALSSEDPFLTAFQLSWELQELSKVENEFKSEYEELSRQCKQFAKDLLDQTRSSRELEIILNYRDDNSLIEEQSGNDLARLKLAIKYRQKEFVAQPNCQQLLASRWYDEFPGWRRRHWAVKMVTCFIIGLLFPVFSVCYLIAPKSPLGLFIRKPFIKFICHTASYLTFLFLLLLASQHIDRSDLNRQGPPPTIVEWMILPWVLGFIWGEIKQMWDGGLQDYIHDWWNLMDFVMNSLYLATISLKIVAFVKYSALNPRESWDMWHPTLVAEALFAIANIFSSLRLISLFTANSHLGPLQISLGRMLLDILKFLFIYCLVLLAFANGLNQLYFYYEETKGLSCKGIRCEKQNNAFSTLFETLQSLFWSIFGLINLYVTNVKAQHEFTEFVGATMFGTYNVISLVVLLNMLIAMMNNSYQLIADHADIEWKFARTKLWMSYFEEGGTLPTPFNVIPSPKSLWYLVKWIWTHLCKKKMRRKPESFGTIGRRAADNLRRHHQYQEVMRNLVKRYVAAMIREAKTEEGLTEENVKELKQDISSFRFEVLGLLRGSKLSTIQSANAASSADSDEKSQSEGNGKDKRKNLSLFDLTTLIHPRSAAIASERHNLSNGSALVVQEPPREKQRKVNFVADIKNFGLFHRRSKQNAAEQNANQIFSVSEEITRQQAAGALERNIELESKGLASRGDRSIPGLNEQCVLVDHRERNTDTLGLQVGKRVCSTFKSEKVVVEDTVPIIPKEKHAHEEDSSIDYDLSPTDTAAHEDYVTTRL

[5] = biological target: T3, Neuropeptide Y receptor type 2 (Homo sapiens, UniProt P49146); format: functional, cell-based;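 further: HEK293 cells expressing the receptor and a CNG channel; stimulus was NPY near EC95 followed by isoproterenol to raise cAMP; antagonist potency measured as restoring cAMP signal that NPY suppresses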
T3 sequence (P49146 whole entry): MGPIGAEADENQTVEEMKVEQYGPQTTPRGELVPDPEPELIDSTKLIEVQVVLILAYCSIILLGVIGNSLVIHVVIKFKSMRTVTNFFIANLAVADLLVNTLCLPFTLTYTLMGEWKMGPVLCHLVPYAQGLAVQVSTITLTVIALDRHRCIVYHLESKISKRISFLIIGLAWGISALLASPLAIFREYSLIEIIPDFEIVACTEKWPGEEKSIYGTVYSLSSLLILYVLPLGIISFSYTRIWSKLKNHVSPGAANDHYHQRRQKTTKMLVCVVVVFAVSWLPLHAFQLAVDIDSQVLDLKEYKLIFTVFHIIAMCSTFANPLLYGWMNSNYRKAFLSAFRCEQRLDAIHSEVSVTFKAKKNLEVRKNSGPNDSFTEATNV

[6] = biological target: T4, Neuropeptide Y receptor type 1 (Homo sapiens, UniProt P25929); format: functional;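 further: HEK293 cells with a CNG channel challenged with NPY then isoproterenol; potency as antagonist that reverses NPY suppression of cAMP signal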
T4 sequence (P25929 whole entry): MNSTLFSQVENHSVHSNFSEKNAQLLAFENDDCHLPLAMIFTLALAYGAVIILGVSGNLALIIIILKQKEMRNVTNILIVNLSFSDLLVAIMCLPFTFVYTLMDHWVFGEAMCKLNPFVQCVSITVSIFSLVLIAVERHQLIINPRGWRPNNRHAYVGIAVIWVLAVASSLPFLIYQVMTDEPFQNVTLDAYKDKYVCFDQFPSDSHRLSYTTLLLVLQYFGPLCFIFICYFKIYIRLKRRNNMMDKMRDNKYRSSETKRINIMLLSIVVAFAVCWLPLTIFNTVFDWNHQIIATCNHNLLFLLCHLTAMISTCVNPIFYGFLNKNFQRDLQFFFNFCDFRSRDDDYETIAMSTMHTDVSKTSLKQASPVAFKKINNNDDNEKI

Mucolipin-3 = biological target: T5, Mucolipin-3 (Homo sapiens, UniProt Q8TDD5); assay: Dose response cell-based high-throughput screening assay for agonists of the transient receptor potential channel ML3 (TRPML3). [Related pubchem assays: 1526, 1424, 1448 ]; format: functional
T5 sequence (Q8TDD5 whole entry): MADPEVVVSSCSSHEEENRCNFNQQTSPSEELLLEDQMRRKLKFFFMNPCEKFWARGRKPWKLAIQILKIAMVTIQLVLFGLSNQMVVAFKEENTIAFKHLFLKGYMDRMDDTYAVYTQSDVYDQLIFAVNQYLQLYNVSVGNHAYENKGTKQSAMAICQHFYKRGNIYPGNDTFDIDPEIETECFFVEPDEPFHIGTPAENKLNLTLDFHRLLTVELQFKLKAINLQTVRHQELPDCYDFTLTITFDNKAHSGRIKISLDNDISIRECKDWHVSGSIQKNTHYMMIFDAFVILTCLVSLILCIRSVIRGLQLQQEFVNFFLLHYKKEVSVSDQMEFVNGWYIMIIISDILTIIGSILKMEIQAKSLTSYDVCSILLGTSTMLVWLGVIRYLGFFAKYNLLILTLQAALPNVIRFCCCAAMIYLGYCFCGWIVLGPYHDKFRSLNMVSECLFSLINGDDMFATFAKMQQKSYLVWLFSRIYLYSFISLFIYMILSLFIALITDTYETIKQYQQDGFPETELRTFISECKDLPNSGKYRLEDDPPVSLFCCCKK

[7] = biological target: Voltage-gated inwardly rectifying potassium channel KCNH2 (Homo sapiens, UniProt Q12809); conditions: Potency;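 further: confirmatory quantitative high-throughput screen measuring inhibition of hERG channel activity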
Voltage-gated inwardly rectifying potassium channel KCNH2, sequence (Q12809 whole entry): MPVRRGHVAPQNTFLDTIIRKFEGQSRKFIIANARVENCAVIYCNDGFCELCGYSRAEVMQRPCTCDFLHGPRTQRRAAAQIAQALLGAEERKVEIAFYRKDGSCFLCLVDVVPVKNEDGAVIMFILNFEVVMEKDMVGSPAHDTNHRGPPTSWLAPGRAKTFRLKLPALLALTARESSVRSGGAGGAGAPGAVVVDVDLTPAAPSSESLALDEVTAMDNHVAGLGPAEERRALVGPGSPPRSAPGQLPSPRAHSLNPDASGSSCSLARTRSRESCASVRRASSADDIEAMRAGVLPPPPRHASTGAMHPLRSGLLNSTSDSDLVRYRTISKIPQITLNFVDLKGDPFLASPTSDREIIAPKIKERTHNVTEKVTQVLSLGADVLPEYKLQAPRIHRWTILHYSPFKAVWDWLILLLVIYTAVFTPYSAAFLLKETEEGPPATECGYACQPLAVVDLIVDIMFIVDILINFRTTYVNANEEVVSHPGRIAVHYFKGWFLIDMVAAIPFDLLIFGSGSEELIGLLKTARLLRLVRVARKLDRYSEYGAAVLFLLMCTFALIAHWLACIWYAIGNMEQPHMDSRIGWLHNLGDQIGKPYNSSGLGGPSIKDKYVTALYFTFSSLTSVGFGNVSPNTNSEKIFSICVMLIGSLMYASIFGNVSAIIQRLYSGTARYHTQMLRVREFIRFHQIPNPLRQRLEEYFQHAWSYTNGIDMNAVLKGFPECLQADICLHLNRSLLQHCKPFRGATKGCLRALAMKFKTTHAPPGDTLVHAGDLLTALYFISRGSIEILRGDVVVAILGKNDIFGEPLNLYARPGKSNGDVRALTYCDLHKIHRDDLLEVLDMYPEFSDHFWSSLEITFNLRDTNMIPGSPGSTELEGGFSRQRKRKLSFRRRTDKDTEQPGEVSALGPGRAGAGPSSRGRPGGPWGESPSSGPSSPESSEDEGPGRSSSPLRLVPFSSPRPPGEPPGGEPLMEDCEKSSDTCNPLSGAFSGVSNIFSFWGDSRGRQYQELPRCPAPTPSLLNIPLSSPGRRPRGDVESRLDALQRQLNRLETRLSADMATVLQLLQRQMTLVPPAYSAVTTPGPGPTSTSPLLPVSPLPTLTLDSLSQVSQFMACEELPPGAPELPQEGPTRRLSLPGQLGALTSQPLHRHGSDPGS

Ion channel NompC = Ion channel NompC (Danio rerio, UniProt Q7T1G6); assay: Fluorescence counterscreen assay for TRPML3 agonists: dose response cell-based high-throughput screening assay to identify agonists of the transient receptor potential channel N1 (TRPN1). [Related pubchem assays: 1526, 1424, 1448 ]; format: functional
Ion channel NompC, sequence (Q7T1G6 whole entry): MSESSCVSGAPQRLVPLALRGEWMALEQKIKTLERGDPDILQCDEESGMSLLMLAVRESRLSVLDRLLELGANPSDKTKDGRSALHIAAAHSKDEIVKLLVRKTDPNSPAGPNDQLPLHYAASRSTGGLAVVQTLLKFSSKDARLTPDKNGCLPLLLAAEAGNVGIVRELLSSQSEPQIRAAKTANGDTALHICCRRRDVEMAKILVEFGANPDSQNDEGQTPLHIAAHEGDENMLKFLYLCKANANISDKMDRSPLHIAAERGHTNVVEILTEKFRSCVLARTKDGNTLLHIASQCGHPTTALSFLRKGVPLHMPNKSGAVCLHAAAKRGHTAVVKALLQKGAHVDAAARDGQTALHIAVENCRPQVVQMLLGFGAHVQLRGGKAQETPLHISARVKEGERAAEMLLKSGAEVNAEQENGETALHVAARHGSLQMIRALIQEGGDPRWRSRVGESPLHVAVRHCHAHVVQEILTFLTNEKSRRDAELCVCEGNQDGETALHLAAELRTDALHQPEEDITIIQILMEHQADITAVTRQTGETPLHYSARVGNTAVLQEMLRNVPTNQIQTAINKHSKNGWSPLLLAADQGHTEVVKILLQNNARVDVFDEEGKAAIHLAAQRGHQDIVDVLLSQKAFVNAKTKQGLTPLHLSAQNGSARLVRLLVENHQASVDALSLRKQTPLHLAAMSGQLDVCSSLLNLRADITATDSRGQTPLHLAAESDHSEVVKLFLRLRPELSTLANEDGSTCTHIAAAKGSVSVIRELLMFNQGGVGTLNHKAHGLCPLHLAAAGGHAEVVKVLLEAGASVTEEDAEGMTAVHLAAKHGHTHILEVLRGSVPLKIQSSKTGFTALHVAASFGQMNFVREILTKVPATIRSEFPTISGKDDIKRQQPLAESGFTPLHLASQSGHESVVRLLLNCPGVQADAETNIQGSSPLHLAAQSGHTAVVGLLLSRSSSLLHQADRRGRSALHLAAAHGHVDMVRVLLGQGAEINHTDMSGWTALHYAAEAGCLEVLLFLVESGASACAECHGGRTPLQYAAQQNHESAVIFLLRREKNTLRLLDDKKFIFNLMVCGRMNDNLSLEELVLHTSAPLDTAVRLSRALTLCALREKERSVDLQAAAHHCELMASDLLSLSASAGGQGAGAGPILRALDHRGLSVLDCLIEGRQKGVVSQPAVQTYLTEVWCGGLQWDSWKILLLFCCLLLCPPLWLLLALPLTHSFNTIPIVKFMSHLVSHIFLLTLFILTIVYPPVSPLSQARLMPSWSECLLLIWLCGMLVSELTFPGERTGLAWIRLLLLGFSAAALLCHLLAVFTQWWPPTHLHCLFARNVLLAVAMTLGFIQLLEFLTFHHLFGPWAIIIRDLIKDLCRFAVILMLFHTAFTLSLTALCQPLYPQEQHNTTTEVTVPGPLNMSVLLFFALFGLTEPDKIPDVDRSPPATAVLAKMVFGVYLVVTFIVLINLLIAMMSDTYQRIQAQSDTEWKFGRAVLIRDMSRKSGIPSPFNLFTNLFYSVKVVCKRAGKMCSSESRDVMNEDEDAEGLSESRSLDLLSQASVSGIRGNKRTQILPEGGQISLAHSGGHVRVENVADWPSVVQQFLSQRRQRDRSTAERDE

[8] = biological target: T6, Histone-lysine N-methyltransferase NSD2 (Homo sapiens, UniProt O96028); format: biochemical
T6 sequence (O96028 whole entry): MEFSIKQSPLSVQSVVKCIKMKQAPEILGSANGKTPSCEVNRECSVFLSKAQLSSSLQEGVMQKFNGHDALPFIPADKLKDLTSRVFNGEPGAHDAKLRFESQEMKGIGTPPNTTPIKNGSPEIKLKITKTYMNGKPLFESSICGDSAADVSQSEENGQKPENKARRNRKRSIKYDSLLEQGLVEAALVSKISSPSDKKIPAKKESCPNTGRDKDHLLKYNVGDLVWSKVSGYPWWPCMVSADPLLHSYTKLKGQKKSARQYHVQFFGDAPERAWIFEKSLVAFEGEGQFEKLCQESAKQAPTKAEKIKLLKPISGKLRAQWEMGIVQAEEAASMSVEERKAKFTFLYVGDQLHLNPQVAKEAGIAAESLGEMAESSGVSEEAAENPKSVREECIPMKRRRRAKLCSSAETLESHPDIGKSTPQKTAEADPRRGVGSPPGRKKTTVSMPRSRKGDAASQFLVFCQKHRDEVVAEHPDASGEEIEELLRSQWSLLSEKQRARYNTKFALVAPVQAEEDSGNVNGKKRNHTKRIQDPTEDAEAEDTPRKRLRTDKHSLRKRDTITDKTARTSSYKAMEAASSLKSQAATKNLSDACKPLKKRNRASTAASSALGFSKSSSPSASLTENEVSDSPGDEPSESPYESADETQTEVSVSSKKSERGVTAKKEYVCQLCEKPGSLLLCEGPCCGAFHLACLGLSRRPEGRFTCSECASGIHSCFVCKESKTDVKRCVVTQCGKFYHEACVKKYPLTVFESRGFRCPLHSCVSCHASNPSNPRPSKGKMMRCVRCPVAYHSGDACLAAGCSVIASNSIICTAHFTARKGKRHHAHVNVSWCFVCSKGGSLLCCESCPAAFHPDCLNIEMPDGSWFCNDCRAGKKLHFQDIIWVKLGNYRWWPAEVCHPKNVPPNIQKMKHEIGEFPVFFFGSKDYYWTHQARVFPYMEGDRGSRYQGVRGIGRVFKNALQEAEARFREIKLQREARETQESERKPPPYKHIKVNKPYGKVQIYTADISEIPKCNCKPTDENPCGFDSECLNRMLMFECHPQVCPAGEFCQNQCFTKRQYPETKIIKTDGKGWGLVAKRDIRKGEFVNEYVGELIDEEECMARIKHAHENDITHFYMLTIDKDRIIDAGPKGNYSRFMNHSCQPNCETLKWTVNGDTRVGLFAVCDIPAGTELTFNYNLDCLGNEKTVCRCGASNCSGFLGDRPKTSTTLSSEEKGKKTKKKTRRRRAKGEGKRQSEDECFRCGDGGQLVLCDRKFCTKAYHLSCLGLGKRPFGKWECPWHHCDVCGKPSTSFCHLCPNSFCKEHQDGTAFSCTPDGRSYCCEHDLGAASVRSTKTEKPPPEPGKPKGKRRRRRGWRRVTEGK

[9] = biological target: T7, Rac GTPase-activating protein 1 (Homo sapiens, UniProt Q9H0H5); assay: MgcRacGAP GTPase-activating activity inhibitors, confirmation, biochemical, ADP Hunter fluorescence, primary and confirmatory (AID 624330); format: functional
T7 sequence (Q9H0H5 whole entry): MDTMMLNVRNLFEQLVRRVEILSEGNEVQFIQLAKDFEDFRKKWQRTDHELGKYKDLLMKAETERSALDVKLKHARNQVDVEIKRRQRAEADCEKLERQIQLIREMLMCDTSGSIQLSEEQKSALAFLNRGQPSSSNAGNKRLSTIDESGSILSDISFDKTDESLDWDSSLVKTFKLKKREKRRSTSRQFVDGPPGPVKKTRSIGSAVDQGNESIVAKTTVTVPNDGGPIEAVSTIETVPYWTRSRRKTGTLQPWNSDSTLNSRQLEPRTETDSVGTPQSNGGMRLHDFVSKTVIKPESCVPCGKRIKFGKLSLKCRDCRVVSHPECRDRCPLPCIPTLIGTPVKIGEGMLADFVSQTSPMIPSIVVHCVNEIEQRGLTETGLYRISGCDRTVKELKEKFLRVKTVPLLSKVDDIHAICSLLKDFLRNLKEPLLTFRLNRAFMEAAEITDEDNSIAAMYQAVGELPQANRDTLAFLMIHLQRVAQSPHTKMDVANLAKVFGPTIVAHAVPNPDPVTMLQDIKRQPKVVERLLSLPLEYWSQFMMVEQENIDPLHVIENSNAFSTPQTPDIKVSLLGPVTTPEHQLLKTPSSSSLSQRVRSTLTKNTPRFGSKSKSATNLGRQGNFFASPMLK

Albumin = Albumin (Bos taurus, UniProt P02769); assay: Counterscreen for inhibitors of T-cell receptor (TCR)-CD3 interaction: Fluorescence-based biochemical high throughput dose response assay to identify inhibitors of T-cell receptor (TCR)-CD3 interaction using a TAMRA-labeled BSA probe.; format: functional

EC50 [1]: > 50 µM (not active)
Compound: Cc1ccn2cc(C(=O)Nc3ccccc3N3CCOCC3)nc2c1

EC50 (Mucolipin-3): 2.67 µM (active)
EC50 (Ion channel NompC): > 29.9 µM (not active)
Compound: COc1ccc(S(=O)(=O)N2CCCCCC2)cc1Br

AC50 [8]: > 20 µM (inactive)
IC50 (Procathepsin L): > 59.6 µM (not active)
IC50 [9]: 23.9 µM (active)
IC50 (Albumin): > 94.1 µM (inactive)
IC50 (Aspartyl aminopeptidase): 2.48 µM (active)
Compound: COc1ccc2nc(C)cc(SCC(=O)N/N=C/c3ccc(O)c(O)c3)c2c1

Second part, the compound before the results:

Compound: COC(=O)c1cc(C(=O)Nn2cnnc2)cc([N+](=O)[O-])c1
IC50 (Procathepsin L): > 59.6 µM (not active)
IC50 (Aspartyl aminopeptidase): 2.37 µM (active)

Compound: Cc1cc(C)c(C)c(S(=O)(=O)Nc2ccccc2C(=O)NCCCn2ccnc2)c1C
EC50 (HT-1080): > 50 µM (not active)
IC50 [2]: > 100 µM (not active)
EC50 [3]: 61.1 µM (active)

Compound: C=CCNc1nc(N2CCCC2)nc2ccccc12
EC50 [4]: 1.19 µM (active)
IC50 [5]: > 35 µM (not active)
IC50 [6]: 11.8 µM (not active)

Compound: CC(C)(C)[C@]1(O)CCN2C[C@H]3c4ccccc4CCc4cccc(c43)[C@@H]2C1 [BUTACLAMOL HYDROCHLORIDE]
EC50 (Mucolipin-3): 3.98 µM (active)
AC50 [7]: 6.31 µM (active)
EC50 (Ion channel NompC): > 29.9 µM (not active)

Compound: Cc1ccc(N=C2CCc3ccccc3N2)cc1
EC50 [3]: 80.9 µM (active)
